Source: patent US20120088774A1, “ACTIVE PHARMACEUTICAL INGREDIENT ADSORBED ON SOLID SUPPORT” (LEK PHARMACEUTICALS D.D., priority 2009, published 2012)
Blank lines part the entries; values can stand above or below the compound they belong to.

Experiments:
[1] = Dissolution of crystalline lovastatin and lovastatin adsorbate in 0.02M hydrochloric acid; format: physicochemical
Protocol: 0.2 g of lovastatin was dissolved in a mixture of 10 ml trichloromethane and 40 ml diisopropyl ether. 2 g of a the SYLOID® AL1 was added to the solution. Subsequently the solvent was removed by evaporation.

[2] = Dissolution of crystalline simvastatin and simvastatin adsorbate in 0.02M hydrochloric acid; format: physicochemical
Protocol: 0.2 g of simvastatin was dissolved in 50 ml of dichloromethane. 2 g of a the SYLOID® AL1 was added to the solution. Subsequently the solvent was removed by evaporation. The sample was analysed using X-ray powder diffraction (XRPD). Using XRPD it was confirmed that the API in the product was amorphous. The use of dichloromethane as the solvent for simvastatin and SYLOID® AL1 as the carrier gives the adsorbate according to the invention.

[3] = Dissolution of crystalline tadalafil, tadalafil adsorbate and precipitates on carriers; format: physicochemical; conditions: 20 mM phosphate buffer pH 6.9
Protocol: The carriers comprising tadalafil have been prepared as described in example 1.
0.1 g of tadalafil was dissolved in 20 ml of dichloromethane. 5 ml of the resulting solution was added to 0.25 g of a solid support (Aerosil® 380, Al2O3, MgO, TiO2). Subsequently the solvent was removed by evaporation.

[4] = crystalline solid; term defined as less or equal to 0.1 mg/ml; cited from earlier work

Amount dissolved ([1]; 2 min): 0.298 µg/mL
Amount dissolved ([1]; 5 min): 0.403 µg/mL
Amount dissolved ([1]; 10 min): 0.418 µg/mL
Amount dissolved ([1]; 15 min): 0.501 µg/mL
Amount dissolved ([1]; 25 min): 0.625 µg/mL
Amount dissolved ([1]; 40 min): 0.523 µg/mL
Amount dissolved ([1]; 60 min): 0.62 µg/mL
Amount dissolved ([2]; 2 min): 0.848 µg/mL
Amount dissolved ([2]; 5 min): 1.667 µg/mL
Amount dissolved ([2]; 10 min): 1.853 µg/mL
Amount dissolved ([2]; 15 min): 1.859 µg/mL
Amount dissolved ([2]; 25 min): 2.031 µg/mL
Amount dissolved ([2]; 40 min): 2.145 µg/mL
Amount dissolved ([2]; 60 min): 2.175 µg/mL
SMILES: CC[C@H](C)C(=O)O[C@H]1C[C@@H](C)C=C2C=C[C@H](C)[C@H](CC[C@@H]3C[C@@H](O)CC(=O)O3)[C@H]21 [Crystalline lovastatin, lovastatin]

Amount dissolved ([3]; 2 min): 2.9 µg/mL
Amount dissolved ([3]; 5 min): 14.6 µg/mL
Amount dissolved ([3]; 10 min): 24.2 µg/mL
Amount dissolved ([3]; 15 min): 27.0 µg/mL
Amount dissolved ([3]; 25 min): 32.9 µg/mL
Amount dissolved ([3]; 40 min): 34.4 µg/mL
SMILES: CN1CC(=O)N2[C@H](c3ccc4c(c3)OCO4)c3[nH]c4ccccc4c3C[C@@H]2C1=O [Crystalline tadalafil, (6R,12aR)-6-(1,3-Benzodioxol-5-yl)-2,3,6,7,12,12a-hexahydro-2-methyl-pyrazino[1′,2′:1,6]pyrido[3,4-b]indole-1,4-dione]
solubility in water [4]: practically insoluble in water
